Results reported in patent US9650395B2, “Antibacterial compounds and methods for use” (PTC Therapeutics, Inc., priority 2011, dated 2017).
Converted amounts (≈) assume the structure as drawn. Counter-ions that a name gives are not always drawn. Like-named read-outs stand apart in the source and are kept apart here.

Key:
[1] = test system: E. coli ELZ4000 (MDR clinical isolate); experiment: Antibacterial activity, MIC, MDR E. coli ELZ4000; assay type: cell-based, Escherichia coli; conditions: Escherichia coli; E. coli ELZ4000, MDR clinical isolate; read-out: MIC ELZ4000
[2] = test system: Klebsiella pneumoniae (K. pneumoniae) 35657; experiment: Antibacterial activity, MIC, K. pneumoniae 35657; assay type: cell-based; conditions: Klebsiella pneumoniae
[3] = test system: Moraxella catarrhalis (M. catarrhalis) 25238; experiment: Antibacterial activity, MIC, M. catarrhalis 25238; assay type: cell-based; conditions: Moraxella catarrhalis, M. catarrhalis 25238; read-out: MIC 25238
[4] = test system: control Gram-negative E. coli 25922 strain; experiment: Antibacterial activity, microbroth dilution MIC, E. coli 25922; assay type: cell-based, Escherichia coli; conditions: Escherichia coli; E. coli 25922, microbroth dilution; read-out: MIC, 25922
[5] = test system: super sensitive Gram-negative Escherichia coli (E. coli) BAS849; experiment: Antibacterial activity, microbroth dilution MIC, E. coli BAS849; assay type: cell-based; conditions: Escherichia coli, read-out: MIC, BAS849
[6] = test system: Haemophilus influenzae (H. influenzae) 49247; experiment: Antibacterial activity, MIC, H. influenzae 49247; assay type: cell-based; conditions: Haemophilus influenzae; H. influenzae 49247; read-out: MIC 49247
In short: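 A microbroth dilution method gave the minimum inhibitory concentration for each compound against H. influenzae 49247, a Gram-negative bacterium. MIC means the smallest concentration of drug at which no macroscopically visible bacterial growth appears under the conditions of the test.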

[7] = test system: Gram-positive Staphylococcus aureus (S. aureus) 29213; experiment: Antibacterial activity, microbroth dilution MIC, S. aureus 29213; assay type: cell-based; conditions: Staphylococcus aureus; S. aureus 29213, microbroth dilution; read-out: MIC, 29213
[8] = test system: Neisseria meningitidis (N. meningitidis) 13090; experiment: Antibacterial activity, MIC, N. meningitidis 13090; assay type: cell-based; conditions: Neisseria meningitidis; N. meningitidis 13090; read-out: MIC 13090
[9] = test system: Pseudomonas aeruginosa (P. aeruginosa) 27853; experiment: Antibacterial activity, MIC, P. aeruginosa 27853; assay type: cell-based; conditions: Pseudomonas aeruginosa, P. aeruginosa 27853; read-out: MIC 27853
From the text: (§1) The antibacterial activity from a microbroth dilution method may be presented as the minimum inhibitory concentration (MIC in […]). The MIC value is the lowest concentration of a drug which prevents macroscopically visible bacterial growth under test conditions.
Antibacterial activity of test compounds against the Gram-negative bacterium Pseudomonas aeruginosa (P. aeruginosa) 27853 is shown in Table 5.

[10] = test system: quinolone resistant E. coli LZ3111; experiment: Antibacterial activity, MIC, quinolone resistant E. coli LZ3111; assay type: cell-based, Escherichia coli; conditions: Escherichia coli, read-out: MIC, LZ3111
From the text: as §1
Mutations in these regions are known to confer a high level resistance to the quinolone class of antibiotics.

[11] = test system: E. coli ELZ4251 (MDR clinical isolate); experiment: Antibacterial activity, MIC, MDR E. coli ELZ4251; assay type: cell-based, Escherichia coli; conditions: Escherichia coli, E. coli ELZ4251, MDR clinical isolate; read-out: MIC ELZ4251
[12] = test system: Acinetobacter baumannii (A. baumannii) BAA747; experiment: Antibacterial activity, MIC, A. baumannii BAA747; assay type: cell-based; conditions: Acinetobacter baumannii; A. baumannii BAA747; read-out: MIC BAA747
[13] = E. coli BAS849, microbroth dilution

Structure (SMILES)	MIC [1] [µg/mL]	MIC [2] [µg/mL]	MIC [3] [µg/mL]	MIC [4] [µg/mL]	MIC [5, 13] [µg/mL]	MIC [6] [µg/mL]	MIC [7] [µg/mL]	MIC [8] [µg/mL]	MIC [9] [µg/mL]	MIC [10] [µg/mL]	MIC [11] [µg/mL]	MIC [12] [µg/mL]	MIC [5] [µg/mL]
CCc1cc(C(=O)O)c(=O)[nH]c1-c1ccc(N2CCCC2)cc1 [Cpd 99, 5-ethyl-2-oxo-6-[4-(pyrrolidin-1-yl)phenyl]-1,2-dihydropyridine-3-carboxylic acid]	12.5 to 150 (≈ 40 to 480 µM)	3.5 to 12.5 (≈ 11.2 to 40 µM)	< 1	< 1	< 1	< 1	1 to 3.5 (≈ 3.2 to 11.2 µM)	< 1	3.5 to 12.5 (≈ 11.2 to 40 µM)	12.5 to 150 (≈ 40 to 480 µM)	12.5 to 150 (≈ 40 to 480 µM)		
CCc1c(-c2ccc(N3CCCC3)cc2)[nH]c(=O)c(C(=O)O)c1O [Cpd 100, 5-ethyl-4-hydroxy-2-oxo-6-[4-(pyrrolidin-1-yl)phenyl]-1,2-dihydropyridine-3-carboxylic acid]	12.5 to 150 (≈ 38.1 to 457 µM)	12.5 to 150 (≈ 38.1 to 457 µM)	< 1	3.5 to 12.5 (≈ 10.7 to 38.1 µM)	< 1	< 1	1 to 3.5 (≈ 3.05 to 10.7 µM)	< 1	12.5 to 150 (≈ 38.1 to 457 µM)	12.5 to 150 (≈ 38.1 to 457 µM)	12.5 to 150 (≈ 38.1 to 457 µM)		
CCc1cc(C(=O)O)c(=O)[nH]c1-c1ccc(-n2cccc2)cc1 [Cpd 101, 5-ethyl-2-oxo-6-[4-(1H-pyrrol-1-yl)phenyl]-1,2-dihydropyridine-3-carboxylic acid]	12.5 to 150 (≈ 40.5 to 486 µM)	3.5 to 12.5 (≈ 11.4 to 40.5 µM)	< 1	12.5 to 150 (≈ 40.5 to 486 µM)	< 1	< 1	12.5 to 150 (≈ 40.5 to 486 µM)	< 1	12.5 to 150 (≈ 40.5 to 486 µM)	12.5 to 150 (≈ 40.5 to 486 µM)	12.5 to 150 (≈ 40.5 to 486 µM)		
CCc1cc(C(=O)O)c(=O)[nH]c1-c1ccc(N2Cc3cccnc3C2)cc1 [Cpd 192, 6-[4-(5,7-dihydro-6H-pyrrolo[3,4-b]pyridin-6-yl)phenyl]-5-ethyl-2-oxo-1,2-dihydropyridine-3-carboxylic acid]		12.5 to 150 (≈ 34.6 to 415 µM)		3.5 to 12.5 (≈ 9.68 to 34.6 µM)	< 1		3.5 to 12.5 (≈ 9.68 to 34.6 µM)		12.5 to 150 (≈ 34.6 to 415 µM)	12.5 to 150 (≈ 34.6 to 415 µM)		12.5 to 150 (≈ 34.6 to 415 µM)	
CCc1cc(C(=O)O)c(=O)[nH]c1-c1ccc(N2CCC(C3(NCc4ccccc4)CC3)C2)cc1.O=C(O)C(F)(F)F (centres unmarked) [Cpd 217, 6-(4-{3-[1-(benzylamino)cyclopropyl]pyrrolidin-1-yl}phenyl)-5-ethyl-2-oxo-1,2-dihydropyridine-3-carboxylic acid trifluoroacetate]		3.5 to 12.5		3.5 to 12.5			3.5 to 12.5		12.5 to 150			12.5 to 150	< 1
CCc1cc(C(=O)O)c(=O)[nH]c1-c1ccc(N2CC3CCCCC3(C#N)C2)cc1 (centres unmarked) [Cpd 219, 6-[4-(3a-cyanooctahydro-2H-isoindol-2-yl)phenyl]-5-ethyl-2-oxo-1,2-dihydropyridine-3-carboxylic acid]		12.5 to 150 (≈ 31.9 to 383 µM)		12.5 to 150 (≈ 31.9 to 383 µM)	< 1		12.5 to 150 (≈ 31.9 to 383 µM)		12.5 to 150 (≈ 31.9 to 383 µM)	12.5 to 150 (≈ 31.9 to 383 µM)		12.5 to 150 (≈ 31.9 to 383 µM)	
CCc1cc(C(=O)O)c(=O)[nH]c1-c1ccc(N2CC[C@@H](O)C2)cc1F [Cpd 225, 5-ethyl-6-{2-fluoro-4-[(3R)-3-hydroxypyrrolidin-1-yl]phenyl}-2-oxo-1,2-dihydropyridine-3-carboxylic acid]		1 to 3.5 (≈ 2.89 to 10.1 µM)		3.5 to 12.5 (≈ 10.1 to 36.1 µM)	< 1		12.5 to 150 (≈ 36.1 to 433 µM)		12.5 to 150 (≈ 36.1 to 433 µM)	12.5 to 150 (≈ 36.1 to 433 µM)		12.5 to 150 (≈ 36.1 to 433 µM)	
CCc1cc(C(=O)O)c(=O)[nH]c1-c1ccc(N2C[C@@H]3[C@@H](N)[C@@H]3C2)cc1F [Cpd 231, 6-{4-[(1R,5S,6s)-6-amino-3-azabicyclo[3.1.0]hex-3-yl]-2-fluorophenyl}-5-ethyl-2-oxo-1,2-dihydropyridine-3-carboxylic acid trifluoroacetate]		1 to 3.5		1 to 3.5			12.5 to 150		12.5 to 150	12.5 to 150		12.5 to 150	< 1
CCc1c(-c2ccc(N3CCC(C4(N(C)C)CC4)C3)cc2)[nH]c(=O)c(C(=O)O)c1O (centres unmarked) [Cpd 247, 6-(4-{3-[1-(dimethylamino)cyclopropyl]pyrrolidin-1-yl}phenyl)-5-ethyl-4-hydroxy-2-oxo-1,2-dihydropyridine-3-carboxylic acid]		3.5 to 12.5 (≈ 8.51 to 30.4 µM)		3.5 to 12.5 (≈ 8.51 to 30.4 µM)	< 1		3.5 to 12.5 (≈ 8.51 to 30.4 µM)		12.5 to 150 (≈ 30.4 to 365 µM)	12.5 to 150 (≈ 30.4 to 365 µM)		12.5 to 150 (≈ 30.4 to 365 µM)	
